Blank lines part the entries; values can stand above or below the compound they belong to.
Assay: solvent given as SMILES

fluorescence lifetime (in C1CCOC1): 1.1 ns
SMILES: CC(C)(C)c1ccc(C2=C(c3ccc(-n4c5ccc(C(C)(C)C)cc5c5cc(C(C)(C)C)ccc54)cc3)S(=O)(=O)c3c2sc(-c2ccc(-n4c5ccc(C(C)(C)C)cc5c5cc(C(C)(C)C)ccc54)cc2)c3-c2ccc(C(C)(C)C)cc2)cc1

SMILES: O=C1c2ccccc2-c2cnccc21
fluorescence lifetime (in CC#N): 6.7 ns
fluorescence lifetime (in CCOC(C)=O): 2.4 ns
fluorescence lifetime (in Cc1ccccc1): 2.2 ns
fluorescence lifetime (in ClCCl): 6.1 ns

fluorescence lifetime (in CCOC(C)=O): 2.55 ns
SMILES: O=Cc1cc2c(cc3ccc4cccc5ccc2c3c45)[nH]1

SMILES: CC1(C)c2ccccc2N(c2ccccc2)c2ccc(S(=O)(=O)c3ccc4c(c3)C(C)(C)c3ccccc3N4c3ccccc3)cc21
fluorescence lifetime (in O=P(c1ccccc1)(c1ccccc1)c1ccccc1Oc1ccccc1P(=O)(c1ccccc1)c1ccccc1): 2.06 ns

fluorescence lifetime (in ClC(Cl)Cl): 1.92 ns
SMILES: CCCCCCN1C(=O)c2cccc3c(-c4cccs4)ccc(c23)C1=O

SMILES: COc1cnc(-c2cc[n+](C3=C(F)C(F)(F)C(F)(F)[C-]3F)cc2)s1
fluorescence lifetime (in CC#N): 2.3 ns
fluorescence lifetime (in CC(C)=O): 2.3 ns
fluorescence lifetime (in CCO): 1.04 ns
fluorescence lifetime (in CN(C)C=O): 0.41 ns
fluorescence lifetime (in CO): 0.54 ns
fluorescence lifetime (in CS(C)=O): 0.22 ns
fluorescence lifetime (in ClC(Cl)Cl): 2.85 ns
fluorescence lifetime (in ClCCl): 2.81 ns

fluorescence lifetime (in ClC(Cl)Cl): 1.4 ns
SMILES: N#CCc1ccccc1-c1cc2ccccc2oc1=O

fluorescence lifetime (in CCO): 2.12 ns
fluorescence lifetime (in ClC(Cl)Cl): 4.31 ns
fluorescence lifetime (in O): 0.27 ns
SMILES: CCOC(=O)c1ccccc1-c1c2ccc(=[N+](CC)CC)cc-2oc2c1c(=O)oc1cc(N(CC)CC)ccc12

fluorescence lifetime (in ClCCl): 3.5 ns
SMILES: COc1ccc(C2=C(C)C3=C(c4c(-c5ccccn5)nc5ccccn45)c4c(C)c(-c5ccc(OC)cc5)c(C)n4[B-](F)(F)[N+]3=C2C)cc1

fluorescence lifetime (in C1CCOC1): 4.6 ns
SMILES: Cc1ccc(-c2cnc3nn4ccccc4c3c2)cc1

fluorescence lifetime (in C1CCOC1): 0.42 ns
SMILES: Cc1cc(C)c(C2=C(c3c(C)sc(-c4ccc(-c5nc(-c6ccccc6)c(-c6ccccc6)[nH]5)cc4)c3C)C(F)(F)C(F)(F)C2(F)F)s1

fluorescence lifetime (in ClCCl): 1.23 ns
SMILES: COC(=O)c1cc(=O)n(C)c2cc(-c3ccccc3N(C)C)sc12

fluorescence lifetime (in ClCCl): 1.17 ns
SMILES: c1ccc(N2N=C(c3c4ccccc4cc4ccccc34)CC2c2ccc3ccc4cccc5ccc2c3c45)cc1 (stereo not given)

fluorescence lifetime (in C1CCOC1): 2.25 ns
fluorescence lifetime (in C1COCCO1): 2.17 ns
fluorescence lifetime (in CC#N): 2.2 ns
fluorescence lifetime (in CC(C)O): 1.98 ns
fluorescence lifetime (in CCO): 1.84 ns
fluorescence lifetime (in CCOC(C)=O): 2.18 ns
fluorescence lifetime (in CN(C)C=O): 2.12 ns
fluorescence lifetime (in CO): 1.67 ns
fluorescence lifetime (in CS(C)=O): 2 ns
fluorescence lifetime (in O): 3.07 ns
SMILES: NS(=O)(=O)c1ccc(N2N=C(c3ccc(O)cc3)CC2c2ccc(Br)cc2)cc1 (stereo not given)

fluorescence lifetime (in ClC(Cl)Cl): 8.5 ns
SMILES: CCCCCCCCCCCCSc1cc2c3c(ccc4c5c(SCCCCCCCCCCCC)cc6c7c(ccc(c1c34)c75)C(=O)N(C1CCCCC1)C6=O)C(=O)N(C1CCCCC1)C2=O

SMILES: c1ccc(-c2c3c(c(-c4ccccc4)c4cc5ccccc5cc24)Cc2c(c(-c4ccccc4)c4cc5ccccc5cc4c2-c2ccccc2)C3)cc1
fluorescence lifetime (in CC#N): 6.87 ns
fluorescence lifetime (in CCCCCC): 3.8 ns
fluorescence lifetime (in CO): 3.68 ns
fluorescence lifetime (in Cc1ccccc1): 3.24 ns
fluorescence lifetime (in ClCCl): 2.58 ns

fluorescence lifetime (in CS(C)=O): 7.96 ns
SMILES: CCCCCCCCn1c2ccccc2c(=O)c2ccccc21

fluorescence lifetime (in ClCCl): 2.19 ns
SMILES: Nc1cccc2c1ccc1[n+]2[B-](F)(F)n2c-1cc1c3ccccc3c3ccccc3c12

SMILES: c1ccc(Cn2c3sccc3c3c4nsnc4c4c5ccsc5n(Cc5ccccc5)c4c32)cc1
fluorescence lifetime (in Cc1ccccc1): 13.5 ns
fluorescence lifetime (in ClCCl): 16.2 ns

fluorescence lifetime (in ClCCl): 3.8 ns
SMILES: CC(C)(C)c1ccc(-n2c(-c3ccc(N(c4ccc(-c5ccc(N(c6ccc(-c7nc8c9ccccc9c9ccccc9c8n7-c7ccc(C(C)(C)C)cc7)cc6)c6ccc(-c7nc8c9ccccc9c9ccccc9c8n7-c7ccc(C(C)(C)C)cc7)cc6)cc5)cc4)c4ccc(-c5nc6c7ccccc7c7ccccc7c6n5-c5ccc(C(C)(C)C)cc5)cc4)cc3)nc3c4ccccc4c4ccccc4c32)cc1

fluorescence lifetime (in ClCCl): 5.2 ns
SMILES: F[B-]1(F)n2c(c3ccccc3c2-c2ccccc2)C(c2ccccc2)=C2c3ccccc3C(c3ccccc3)=[N+]21

SMILES: Cc1nnc(-c2cc(-n3c4ccccc4c4ccccc43)c(-n3c4ccccc4c4ccccc43)cc2-c2nnc(C)o2)o1
fluorescence lifetime (in Cc1ccccc1): 14.5 ns

fluorescence lifetime (in CS(C)=O): 4.4 ns
SMILES: CN(C)c1ccc2cc3c(cc2c1)OCCN=C3

fluorescence lifetime (in O): 2.45 ns
SMILES: CC1(C)C(=O)C=Cc2ccc(O)cc21
